Data: patent US4937235A, “3- or 4-substituted oxotremorine derivatives” (American Cyanamid Company, priority 1989, dated 1990)
Counter-ions that a name gives are not always drawn.

What was measured:
[1] = molecular target: muscarinic cholinergic receptor; assay: [3H] Quinuclidinyl Benzilate (3H-QNB) Binding Assay; parameters: species or system rat; conditions: pH 7.4
[2] = molecular target: muscarinic cholinergic receptor; assay: [3H]-Cis-methyldioxolane (3H-CD) Binding Assay (High Affinity); conditions: rat cerebral cortex, 1.0 nM 3H-CD, 25° C., 120 minutes, pH 7.4
[3] = rat cerebral cortex, 0.25 nM 3H-QNB, 25° C., 120 minutes

SMILES	IC50 [1]	IC50 [2]	IC50 [1, 3]
CN(C)CC#CCN1C[C@@H](O)CC1=O	1510 µM	10.1 µM	–
O=C1CCCN1CC#CCN1CCC(O)C1 (racemic) [(Racemic)-1-[4-(3-Hydroxy-1-pyrrolidinyl)-2-butynyl]-2-pyrrolidinone]	395 µM	0.425 µM	–
COC1CCN(CC#CCN2CCCC2=O)C1 (racemic) [(Racemic)-1-[4-(3-Methoxy-1-pyrrolidinyl)-2-butytnyl]-2-pyrrolidinone, (Racemic)-1-[4-(3-Methoxy-1-pyrrolidinyl)-2-butynyl]-2-pyrrolidinone]	110 µM	1.75 µM	–
CC(=O)OC1CCN(CC#CCN2CCCC2=O)C1 (racemic) [(Racemic)-1-[4-[3-(Acetyloxy)-1-pyrrolidinyl]-2-butynyl]-2-pyrrolidinone]	313 µM	1.33 µM	–
CC(=O)OC1CCN(CC#CCN(C)C(C)=O)C1 (racemic) [(Racemic)-N-[4-(3-(Acetyloxy)-1-pyrrolidinyl]-2-butynyl]-N-methyl acetamide, (Racemic)-N-[4-[3-(Acetyloxy)-1-pyrrolidinyl]-2-butynyl]-N-methyl acetamide]	1930 µM	5.46 µM	–
CC(=O)N(C)CC#CCN1CCC(O)C1 (racemic) [(Racemic)-N-[4-(3-Hydroxy-1-pyrrolidinyl)-2-butynyl]-N-methyl acetamide]	1190 µM	2.01 µM	–
COC1CCN(CC#CCN(C)C(C)=O)C1 (racemic) [(Racemic)-N-[4-(3-Methoxy-1-pyrrolidinyl)-2-butynyl]-N-methyl acetamide]	377 µM	1.37 µM	–
O=C1CCCN1CC#CCN1CCCCC1 [1-[4-(1-Piperidinyl)-2-butynyl]-2-pyrrolidinone, reference compound]	2 µM	0.077 µM	–
CN(C)CC#CCN1CCCC1=O [1-[4-(Dimethylamino)-2-butynyl]-2-pyrrolidinone, reference compound]	163 µM	0.044 µM	–
O=C1C(S)CCN1CC#CCN1CCCCC1 (stereo not drawn) [3-Mercapto-1-[4-(1-piperidinyl)-2-butynyl]-2-pyrrolidinone]	11 µM	0.587 µM	–
CN(C)CC#CCN1CC[C@@H](OC(=O)c2ccc([N+](=O)[O-])cc2)C1=O [(R)-1-[4-(Dimethylamino)-2-butynyl]-3-[(4-nitrobenzoyl)oxy]-2-pyrrolidinone]	–	5.01 µM	113 µM
CN(C)CC#CCN1CC[C@@H](O)C1=O [(R)-1-[4-(Dimethylamino)-2-butynyl]-3-hydroxy-2-pyrrolidinone]	1470 µM	0.578 µM	–
CN(C)CC#CCN1CC[C@@H](S)C1=O [(R)-1-[4-(Dimethylamino)-2-butynyl]-3-mercapto-2-pyrrolidinone, monohydrochloride]	31 µM	0.076 µM	–
CN(C)CC#CCN1C[C@H](O)CC1=O [(R)-1-[4-(Dimethylamino)-2-butynyl]-4-hydroxy-2-pyrrolidinone]	2350 µM	0.578 µM	–
CC(=O)O[C@@H]1CCN(CC#CCN2CCCCC2)C1=O [(R)-3-(Acetyloxy)-1-[4-(1-piperidinyl)-2-butynyl]-2-pyrrolidinone]	419 µM	4.47 µM	–
CC(=O)O[C@@H]1CCN(CC#CCN2CCCC2)C1=O [(R)-3-(Acetyloxy)-1-[4-(1-pyrrolidinyl)-2-butynyl]-2-pyrrolidinone]	231 µM	0.547 µM	–
O=C1[C@H](O)CCN1CC#CCN1CCCCC1 [(R)-3-Hydroxy-1-[4-(1-piperidinyl)-2-butynyl]-2-pyrrolidinone]	84 µM	3.46 µM	–

SMILES	IC50 [1]	IC50 [2]	IC50 [1, 3]
O=C1[C@H](O)CCN1CC#CCN1CCCC1 [(R)-3-Hydroxy-1-[4-(1-pyrrolidinyl)-2-butynyl]-2-pyrrolidinone]	47 µM	0.134 µM	–
O=C1[C@H](S)CCN1CC#CCN1CCCC1 [(R)-3-Mercapto-1-[4-(1-pyrrolidinyl)-2-butynyl]-2-pyrrolidinone]	1 µM	0.007 µM	–
CO[C@@H]1CCN(CC#CCN2CCCCC2)C1=O [(R)-3-Methoxy-1-[4-(1-piperidinyl)-2-butynyl]-2-pyrrolidinone]	459 µM	28.1 µM	–
CO[C@@H]1CCN(CC#CCN2CCCC2)C1=O [(R)-3-Methoxy-1-[4-(1-pyrrolidinyl)-2-butynyl]-2-pyrrolidinone]	283 µM	1.97 µM	–
O=C(O[C@@H]1CCN(CC#CCN2CCCCC2)C1=O)c1ccc([N+](=O)[O-])cc1 [(R)-3-[(4-Nitrobenzoyl)oxy]-1-[4-(1-piperidinyl)-2-butynyl]-2-pyrrolidinone]	–	0.937 µM	43 µM
O=C(O[C@@H]1CCN(CC#CCN2CCCC2)C1=O)c1ccc([N+](=O)[O-])cc1 [(R)-3-[(4-Nitrobenzoyl)oxy]-1-[4-(1-pyrrolidinyl)-2-butynyl]-2-pyrrolidinone]	–	4.29 µM	59 µM
CC(=O)O[C@@H]1CC(=O)N(CC#CCN2CCCCC2)C1 [(R)-4-(Acetyloxy)-1-[4-(1-piperidinyl)-2-butynyl]-2-pyrrolidinone]	181 µM	8.08 µM	–
CC(=O)O[C@@H]1CC(=O)N(CC#CCN2CCCC2)C1 [(R)-4-(Acetyloxy)-1-[4-(1-pyrrolidinyl)-2-butynyl]-2-pyrrolidinone]	46 µM	0.914 µM	–
CC(=O)O[C@@H]1CC(=O)N(CC#CCN(C)C)C1 [(R)-4-(Acetyloxy)-1-[4-(dimethylamino)-2-butynyl]-2-pyrrolidinone]	1780 µM	11.5 µM	–
O=C1C[C@@H](O)CN1CC#CCN1CCCCC1 [(R)-4-Hydroxy-1-[4-(1-piperidinyl)-2-butynyl]-2-pyrrolidinone]	166 µM	3.79 µM	–
O=C1C[C@@H](O)CN1CC#CCN1CCCC1 [(R)-4-Hydroxy-1-[4-(1-pyrrolidinyl)-2-butynyl]-2-pyrrolidinone]	52 µM	0.053 µM	–
CC(=O)S[C@@H]1CCN(CC#CCN(C)C)C1=O [(R)-S-[1-[4-(Dimethylamino)-2-butynyl]-2-oxo-3-pyrrolidinyl]ethanethioic acid ester]	20 µM	0.062 µM	–
CC(=O)S[C@@H]1CCN(CC#CCN2CCCCC2)C1=O [(R)-S-[2-Oxo-1-(4-piperidinyl-2-butynyl)-3-pyrrolidinyl]etha] [(R)-S-[2-Oxo-1-(4-piperidinyl-2-butynyl)-3-pyrrolidinyl]ethanethioic acid ester]	91 µM	–	–
CC(=O)S[C@@H]1CCN(CC#CCN2CCCCC2)C1=O [(R)-S-[2-Oxo-1-(4-piperidinyl-2-butynyl)-3-pyrrolidinyl]ethanethioic acid ester]	–	0.946 µM	–
CC(=O)S[C@@H]1CCN(CC#CCN2CCCCC2)C1=O [(R)-S-[2-Oxo-1-[4-(1-piperidinyl)-2-butynyl]-3-pyrrolidinyl]] [(R)-S-[2-Oxo-1-[4-(1-piperidinyl)-2-butynyl]-3-pyrrolidinyl]ethanethioic acid ester]	4.3 µM	0.03 µM	–
CN(C)CC#CCN1CC[C@H](O[Si](C)(C)C(C)(C)C)C1=O [(S)-1-[4-(Dimethylamino)-2-butynyl]-3-[[(1,1-dimethylethyl)dimethylsilyl]oxy]-2-pyrrolidinone]	200 µM	19.5 µM	–
CC(=O)O[C@H]1CCN(CC#CCN2CCCC2=O)C1 [(S)-1-[4-[3-(Acetyloxy)-1-pyrrolidinyl]-2-butynyl]-2-pyrrolidinone]	2320 µM	2.02 µM	–
